Measured values from ChEMBL document CHEMBL1157659, “Design, synthesis, and biological evaluation of 3-[4-(2-hydroxyethyl)piperazin-1-yl]-7-(6-methoxypyridin-3-yl)-1-(2-propoxyethyl)pyrido[3,4-b]pyrazin-2(1H)-one, a potent, orally active, brain penetrant inhibitor of phosphodiesterase 5 (PDE5)” (J Med Chem, 2010).
Blank lines part the entries; values can stand above or below the compound they belong to. Calls of active or inactive are those of the source. No cut-off for these calls is given here.

Tests used:
Homo sapiens [1] = organism: Homo sapiens; experiment: Selectivity ratio of IC50 for human recombinant PDE11 to IC50 for human platelet PDE5
Homo sapiens [2] = organism: Homo sapiens; experiment: Selectivity ratio of IC50 for human retina PDE6 to IC50 for human platelet PDE5
[3] = target: cGMP-specific 3',5'-cyclic phosphodiesterase (Homo sapiens, UniProt O76074); experiment: Inhibition of human platelet PDE5 assessed as reduction in conversion of [3H]cGMP to [3H]GMP after 2 hr by scintillation proximity assay
[4] = target: Voltage-gated inwardly rectifying potassium channel KCNH2 (Homo sapiens, UniProt Q12809); experiment: Inhibition of human ERG by patch-clamp method
[5] = Aqueous solubility at pH 7.4; assay type: physicochemical
[6] = Clearance in Sprague-Dawley rat at 1 mg/kg, iv; assay type: ADME, organism-based; set-up: dose 1 mg/kg, route intravenous; conditions: in vivo
[7] = Metabolic stability in rat microsomes assessed as compound remaining after 30 mins; assay type: ADME, Microsome; conditions: read-out: Stability
[8] = Metabolic stability in human microsomes assessed as compound remaining after 30 mins; assay type: ADME, Microsome; conditions: read-out: Stability
[9] = Plasma protein binding in rat; assay type: ADME, cell-free; conditions: read-out: PPB (converted)
Plasma [10] = experiment: Plasma protein binding in human; assay type: ADME, cell-free
[11] = Fraction unbound in rat plasma; assay type: ADME, cell-free
Plasma [12] = experiment: Fraction unbound in human plasma; assay type: ADME, cell-free
Rattus norvegicus [13] = experiment: Antihypertensive activity in iv dosed anesthetized SHR rat assessed as reduction of systemic arterial blood pressure at free plasma concentration of 2.3 nM; assay type: functional, organism-based; conditions: Artery
[14] = Oral bioavailability in Sprague-Dawley rat at 1 mg/kg; assay type: ADME, organism-based; conditions: in vivo
[15] = Clearance in dog; assay type: ADME, organism-based, Canis lupus familiaris; conditions: in vivo
[16] = Bioavailability in dog; assay type: ADME, organism-based, Canis lupus familiaris; conditions: in vivo
[17] = Metabolic stability in cannulated Sprague-Dawley rat bile duct assessed as compound remaining after 6 hrs; assay type: ADME; conditions: read-out: Stability
[18] = Renal clearance in Sprague-Dawley rat as % compound recovered; assay type: ADME, organism-based, Kidney; conditions: urine, read-out: Recovered in urine
[19] = Renal clearance in dog as % compound recovered; assay type: ADME, organism-based, Canis lupus familiaris, Kidney; conditions: urine, read-out: Recovered in urine
[20] = Ratio of drug level in brain to blood in Sprague-Dawley rat at 10 mg/kg, sc administered as single dose measured after 2 hrs; assay type: ADME, organism-based; set-up: dose 10 mg/kg, route subcutaneous; conditions: read-out: BBR
[21] = target: Dual specificity calcium/calmodulin-dependent 3',5'-cyclic nucleotide phosphodiesterase 1A (Homo sapiens, UniProt P54750); experiment: Inhibition of PDE1A
[22] = target: Dual specificity calcium/calmodulin-dependent 3',5'-cyclic nucleotide phosphodiesterase 1B (Homo sapiens, UniProt Q01064); experiment: Inhibition of PDE1B
[23] = target: Dual specificity calcium/calmodulin-dependent 3',5'-cyclic nucleotide phosphodiesterase 1C (Homo sapiens, UniProt Q14123); experiment: Inhibition of PDE1C
[24] = Inhibition of PDE2
[25] = target: cGMP-inhibited 3',5'-cyclic phosphodiesterase 3A (Homo sapiens, UniProt Q14432); experiment: Inhibition of PDE3A
[26] = target: cGMP-inhibited 3',5'-cyclic phosphodiesterase 3B (Homo sapiens, UniProt Q13370); experiment: Inhibition of PDE3B
[27] = target: 3',5'-cyclic-AMP phosphodiesterase 4A (Homo sapiens, UniProt P27815); experiment: Inhibition of PDE4A
[28] = target: 3',5'-cyclic-AMP phosphodiesterase 4B (Homo sapiens, UniProt Q07343); experiment: Inhibition of PDE4B
[29] = target: 3',5'-cyclic-AMP phosphodiesterase 4C (Homo sapiens, UniProt Q08493); experiment: Inhibition of PDE4C
[30] = target: 3',5'-cyclic-AMP phosphodiesterase 4D (Homo sapiens, UniProt Q08499); experiment: Inhibition of PDE4D
[31] = Inhibition of PDE7
[32] = target: 3',5'-cyclic-AMP phosphodiesterase 7B (Homo sapiens, UniProt Q9NP56); experiment: Inhibition of PDE7B
[33] = target: High affinity cAMP-specific and IBMX-insensitive 3',5'-cyclic phosphodiesterase 8A (Homo sapiens, UniProt O60658); experiment: Inhibition of PDE8A
[34] = target: High affinity cAMP-specific and IBMX-insensitive 3',5'-cyclic phosphodiesterase 8B (Homo sapiens, UniProt O95263); experiment: Inhibition of PDE8B
[35] = Inhibition of PDE9
Rattus norvegicus [36] = experiment: Antihypertensive activity in anesthetized SHR rat assessed as reduction of systolic blood pressure at 2 mg/kg, po after 24 hrs relative to control; assay type: functional, Artery
Rattus norvegicus [37] = experiment: Antihypertensive activity in iv dosed anesthetized SHR rat assessed as reduction of systemic arterial blood pressure administered as three successive escalating doses measured during 30 to 50 mins portion of each 1 hr steady state infusion; assay type: functional, organism-based; conditions: Artery
[38] = Ratio of free drug level in iv dosed SHR rat plasma administered as three successive escalating doses to IC50 for human platelet PDE5; assay type: ADME, organism-based; conditions: in vivo
Rattus norvegicus [39] = experiment: Toxicity in iv dosed SHR rat administered as three successive escalating doses; assay type: organism-based; conditions: in vivo
Rattus norvegicus [40] = experiment: Free plasma concentration in iv dosed anesthetized SHR rat administered as three successive escalating doses; assay type: ADME, organism-based; conditions: in vivo
[41] = Tmax in healthy human; assay type: ADME, organism-based; conditions: in vivo
[42] = Elimination half life in healthy human; assay type: ADME, organism-based; conditions: in vivo, read-out: beta t1/2 (converted)
Homo sapiens [43] = organism: Homo sapiens; experiment: Plasma protein binding in human; conditions: read-out: PPB (converted)
Homo sapiens [44] = organism: Homo sapiens; experiment: Fraction unbound in human plasma

Voltage-gated inwardly rectifying potassium channel KCNH2, sequence (Q12809 whole entry): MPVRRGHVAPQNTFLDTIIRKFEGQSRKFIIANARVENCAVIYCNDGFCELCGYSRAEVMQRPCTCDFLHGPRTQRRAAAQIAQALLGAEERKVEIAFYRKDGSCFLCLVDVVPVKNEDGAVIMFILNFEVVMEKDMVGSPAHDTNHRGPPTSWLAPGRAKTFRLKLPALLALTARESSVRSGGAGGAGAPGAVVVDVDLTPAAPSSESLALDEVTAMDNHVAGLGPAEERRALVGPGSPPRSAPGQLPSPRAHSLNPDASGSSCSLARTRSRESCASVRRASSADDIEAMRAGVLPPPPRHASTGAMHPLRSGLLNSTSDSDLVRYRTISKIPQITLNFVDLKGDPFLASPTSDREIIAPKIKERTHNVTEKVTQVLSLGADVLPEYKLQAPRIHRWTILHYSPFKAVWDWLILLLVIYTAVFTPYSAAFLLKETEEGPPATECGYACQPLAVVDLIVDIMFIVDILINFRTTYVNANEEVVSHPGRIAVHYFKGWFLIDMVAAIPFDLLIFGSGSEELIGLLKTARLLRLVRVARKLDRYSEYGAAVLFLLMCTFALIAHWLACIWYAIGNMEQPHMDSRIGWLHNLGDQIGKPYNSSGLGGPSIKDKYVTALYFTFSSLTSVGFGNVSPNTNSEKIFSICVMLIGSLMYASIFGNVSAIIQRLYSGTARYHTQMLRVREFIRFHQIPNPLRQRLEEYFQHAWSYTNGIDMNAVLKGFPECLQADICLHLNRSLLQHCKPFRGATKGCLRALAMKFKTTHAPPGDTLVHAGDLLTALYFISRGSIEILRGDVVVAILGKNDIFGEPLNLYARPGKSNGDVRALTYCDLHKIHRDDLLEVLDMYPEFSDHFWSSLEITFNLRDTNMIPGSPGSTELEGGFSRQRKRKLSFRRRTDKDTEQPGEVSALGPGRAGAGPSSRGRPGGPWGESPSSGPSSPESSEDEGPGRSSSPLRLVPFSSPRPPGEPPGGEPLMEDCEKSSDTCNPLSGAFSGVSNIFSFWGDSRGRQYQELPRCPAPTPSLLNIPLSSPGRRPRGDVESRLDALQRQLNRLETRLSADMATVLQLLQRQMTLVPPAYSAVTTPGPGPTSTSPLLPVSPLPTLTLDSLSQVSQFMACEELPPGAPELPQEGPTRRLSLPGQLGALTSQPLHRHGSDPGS
Dual specificity calcium/calmodulin-dependent 3',5'-cyclic nucleotide phosphodiesterase 1C, sequence (Q14123 whole entry): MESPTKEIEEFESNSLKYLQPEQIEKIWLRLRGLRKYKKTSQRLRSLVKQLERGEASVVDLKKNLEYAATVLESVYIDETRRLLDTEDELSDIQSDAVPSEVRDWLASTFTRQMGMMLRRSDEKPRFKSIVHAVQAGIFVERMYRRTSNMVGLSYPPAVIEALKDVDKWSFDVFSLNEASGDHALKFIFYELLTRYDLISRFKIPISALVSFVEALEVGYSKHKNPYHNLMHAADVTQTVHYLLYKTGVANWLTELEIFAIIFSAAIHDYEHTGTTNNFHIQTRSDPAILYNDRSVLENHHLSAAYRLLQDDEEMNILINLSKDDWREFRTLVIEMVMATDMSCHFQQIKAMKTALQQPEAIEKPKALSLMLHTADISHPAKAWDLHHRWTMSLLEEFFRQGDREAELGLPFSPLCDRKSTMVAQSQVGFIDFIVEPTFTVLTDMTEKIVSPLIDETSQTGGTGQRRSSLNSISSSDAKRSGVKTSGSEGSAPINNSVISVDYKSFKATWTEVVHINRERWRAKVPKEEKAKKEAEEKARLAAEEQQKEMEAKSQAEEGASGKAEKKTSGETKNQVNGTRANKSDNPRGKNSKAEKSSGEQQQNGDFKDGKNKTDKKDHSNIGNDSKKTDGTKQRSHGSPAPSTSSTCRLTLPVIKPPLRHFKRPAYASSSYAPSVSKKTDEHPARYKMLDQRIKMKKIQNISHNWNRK
3',5'-cyclic-AMP phosphodiesterase 4C, sequence (Q08493 whole entry): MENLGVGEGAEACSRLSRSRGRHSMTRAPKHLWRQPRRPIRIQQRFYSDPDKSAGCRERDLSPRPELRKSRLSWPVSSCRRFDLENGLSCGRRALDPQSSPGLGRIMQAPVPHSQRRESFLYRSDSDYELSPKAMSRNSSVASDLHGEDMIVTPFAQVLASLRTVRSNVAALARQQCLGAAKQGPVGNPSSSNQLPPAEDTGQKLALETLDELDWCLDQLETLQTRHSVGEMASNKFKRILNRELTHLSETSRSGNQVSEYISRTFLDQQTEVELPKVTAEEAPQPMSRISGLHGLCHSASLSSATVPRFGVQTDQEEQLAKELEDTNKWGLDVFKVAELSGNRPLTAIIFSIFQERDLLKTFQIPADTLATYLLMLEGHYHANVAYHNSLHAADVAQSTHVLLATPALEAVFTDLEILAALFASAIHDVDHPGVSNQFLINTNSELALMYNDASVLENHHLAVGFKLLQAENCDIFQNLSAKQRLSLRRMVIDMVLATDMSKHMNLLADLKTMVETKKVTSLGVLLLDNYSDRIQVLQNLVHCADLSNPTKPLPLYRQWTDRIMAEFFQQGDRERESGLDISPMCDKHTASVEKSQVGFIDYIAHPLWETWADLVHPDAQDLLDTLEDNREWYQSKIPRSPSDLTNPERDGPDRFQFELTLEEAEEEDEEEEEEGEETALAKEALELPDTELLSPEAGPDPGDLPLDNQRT
3',5'-cyclic-AMP phosphodiesterase 7B, sequence (Q9NP56 whole entry): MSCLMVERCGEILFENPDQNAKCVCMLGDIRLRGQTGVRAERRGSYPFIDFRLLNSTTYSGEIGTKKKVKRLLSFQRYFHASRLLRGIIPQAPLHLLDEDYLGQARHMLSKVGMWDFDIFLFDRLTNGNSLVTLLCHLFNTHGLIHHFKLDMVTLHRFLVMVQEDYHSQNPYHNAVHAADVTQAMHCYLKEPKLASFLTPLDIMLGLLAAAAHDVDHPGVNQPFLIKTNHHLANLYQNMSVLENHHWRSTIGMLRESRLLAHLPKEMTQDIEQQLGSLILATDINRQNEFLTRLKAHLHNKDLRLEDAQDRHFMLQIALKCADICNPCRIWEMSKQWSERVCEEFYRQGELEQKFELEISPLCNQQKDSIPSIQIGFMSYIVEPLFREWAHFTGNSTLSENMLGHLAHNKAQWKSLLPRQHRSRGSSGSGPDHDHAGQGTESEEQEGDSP
cGMP-inhibited 3',5'-cyclic phosphodiesterase 3A, sequence (Q14432 whole entry): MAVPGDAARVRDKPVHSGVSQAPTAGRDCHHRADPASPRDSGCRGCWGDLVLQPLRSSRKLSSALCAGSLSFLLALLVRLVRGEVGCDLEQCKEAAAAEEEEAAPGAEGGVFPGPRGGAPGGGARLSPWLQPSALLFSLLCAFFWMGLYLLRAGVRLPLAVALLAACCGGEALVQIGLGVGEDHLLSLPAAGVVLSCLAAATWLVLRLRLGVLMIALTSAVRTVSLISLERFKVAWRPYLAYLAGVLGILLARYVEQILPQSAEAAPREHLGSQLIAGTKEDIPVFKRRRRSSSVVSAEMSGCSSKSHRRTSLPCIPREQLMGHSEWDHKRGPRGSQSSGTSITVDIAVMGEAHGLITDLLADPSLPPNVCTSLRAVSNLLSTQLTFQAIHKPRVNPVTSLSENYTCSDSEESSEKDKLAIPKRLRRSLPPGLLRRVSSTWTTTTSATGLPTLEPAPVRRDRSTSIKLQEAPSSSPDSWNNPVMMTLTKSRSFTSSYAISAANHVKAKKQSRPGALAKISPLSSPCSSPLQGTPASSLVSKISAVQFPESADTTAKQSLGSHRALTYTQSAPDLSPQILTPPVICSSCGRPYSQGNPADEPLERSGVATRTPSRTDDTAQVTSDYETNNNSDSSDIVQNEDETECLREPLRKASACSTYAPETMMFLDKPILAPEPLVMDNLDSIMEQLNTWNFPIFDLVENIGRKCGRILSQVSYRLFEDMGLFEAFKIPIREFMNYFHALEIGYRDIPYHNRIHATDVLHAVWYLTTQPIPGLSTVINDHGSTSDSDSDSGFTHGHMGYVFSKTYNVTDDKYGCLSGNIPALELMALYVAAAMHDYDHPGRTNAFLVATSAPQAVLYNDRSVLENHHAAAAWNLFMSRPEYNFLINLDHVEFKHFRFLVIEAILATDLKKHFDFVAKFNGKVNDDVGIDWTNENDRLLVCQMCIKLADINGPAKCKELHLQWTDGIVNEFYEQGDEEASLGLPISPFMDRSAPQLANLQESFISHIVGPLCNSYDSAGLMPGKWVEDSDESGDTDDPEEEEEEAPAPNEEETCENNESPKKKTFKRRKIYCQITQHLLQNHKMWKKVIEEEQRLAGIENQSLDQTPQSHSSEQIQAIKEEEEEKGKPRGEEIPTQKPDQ
High affinity cAMP-specific and IBMX-insensitive 3',5'-cyclic phosphodiesterase 8A, sequence (O60658 whole entry): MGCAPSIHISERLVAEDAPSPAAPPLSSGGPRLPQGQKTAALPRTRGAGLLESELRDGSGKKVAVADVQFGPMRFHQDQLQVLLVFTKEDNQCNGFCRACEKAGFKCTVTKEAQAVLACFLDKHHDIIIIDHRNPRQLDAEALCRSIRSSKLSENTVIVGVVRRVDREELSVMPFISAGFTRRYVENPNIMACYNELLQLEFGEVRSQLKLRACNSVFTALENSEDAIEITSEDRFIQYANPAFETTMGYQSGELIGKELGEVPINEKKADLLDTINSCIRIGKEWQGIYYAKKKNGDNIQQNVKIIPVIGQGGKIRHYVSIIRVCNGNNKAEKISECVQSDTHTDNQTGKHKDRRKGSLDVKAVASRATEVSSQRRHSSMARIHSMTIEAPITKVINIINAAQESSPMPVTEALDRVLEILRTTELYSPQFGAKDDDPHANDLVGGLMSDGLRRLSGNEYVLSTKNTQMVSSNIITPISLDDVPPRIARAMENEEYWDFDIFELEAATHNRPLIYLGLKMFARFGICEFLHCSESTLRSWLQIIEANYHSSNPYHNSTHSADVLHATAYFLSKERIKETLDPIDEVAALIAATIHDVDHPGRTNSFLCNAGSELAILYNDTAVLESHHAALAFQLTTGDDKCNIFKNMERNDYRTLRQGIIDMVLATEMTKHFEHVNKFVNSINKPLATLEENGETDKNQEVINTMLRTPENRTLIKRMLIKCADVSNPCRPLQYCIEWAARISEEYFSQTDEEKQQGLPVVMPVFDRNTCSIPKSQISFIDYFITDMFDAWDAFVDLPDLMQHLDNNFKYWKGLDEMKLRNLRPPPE

Ratio IC50 (Homo sapiens [1]): > 2780
Ratio IC50 (Homo sapiens [2]): 70
Compound: CCCOCCn1c(=O)c(N2CCCN(CCO)CC2)nc2cnc(-c3ccc(OC)nc3)cc21

IC50 [3]: 0.00023 µM
Ratio IC50 (Homo sapiens [1]): 2380
Ratio IC50 (Homo sapiens [2]): 134
Compound: CCCOCCn1c(=O)c(N2CCN(C[C@@H](C)O)CC2)nc2cnc(-c3ccc(OC)nc3)cc21
IC50 [4]: 0.23 µM

IC50 [3]: 0.00022 µM
Compound: CCCOCCn1c(=O)c(N2CCN(CC)CC2)nc2cnc(-c3ccc(OC)nc3)cc21

Ratio IC50 (Homo sapiens [1]): > 8000
Ratio IC50 (Homo sapiens [2]): 4840
solubility [5]: > 100 µM
clearance [6]: 170 mL/min/kg
remaining at 0.5 h [7]: 98%
remaining at 0.5 h [8]: 97%
fraction unbound [9]: 0.166
PPB (Plasma [10]): 69.4%
fraction unbound [11]: 0.18
Fu (Plasma [12]): 18%
Compound: CCCOCCn1c(=O)c(NCCN)nc2cnc(-c3ccc(OC)nc3)cc21

Ratio IC50 (Homo sapiens [1]): 1740
Ratio IC50 (Homo sapiens [2]): 134
Compound: CCCOCCn1c(=O)c(N2CCN([C@@H](C)[C@@H](C)O)CC2)nc2cnc(-c3ccc(OC)nc3)cc21 (racemic)
IC50 [4]: 0.054 µM

Ratio IC50 (Homo sapiens [1]): 1370
Ratio IC50 (Homo sapiens [2]): 64
Compound: CCCOCCn1c(=O)c(N2CCN(CC(C)(C)O)CC2)nc2cnc(-c3ccc(OC)nc3)cc21

clearance [6]: 42 mL/min/kg
remaining at 0.5 h [7]: 86%
remaining at 0.5 h [8]: 86%
fraction unbound [9]: 0.158
Compound: CCCOCCn1c(=O)c(N2CCNCC2)nc2cnc(-c3ccc(OC)nc3)cc21
IC50 [4]: 0.67 µM

IC50 [3]: 0.0002 µM
Ratio IC50 (Homo sapiens [1]): 2460
Ratio IC50 (Homo sapiens [2]): 158
clearance [6]: 37 mL/min/kg
remaining at 0.5 h [7]: 89%
remaining at 0.5 h [8]: 85%
fraction unbound [9]: 0.171
PPB (Plasma [10]): 67.8%
bioavailability [14]: 69%
fraction unbound [11]: 0.18
Fu (Plasma [12]): 18%
clearance [15]: 5.8 mL/min/kg
bioavailability [16]: 92%
remaining at 6 h [17]: 2%
dose excreted [18]: < 2%
dose excreted [19]: < 2%
Kp at 2 h [20]: 4
IC50 [21]: > 2 µM
IC50 [22]: > 2 µM
IC50 [23]: > 2 µM
IC50 [24]: > 2 µM
IC50 [25]: > 2 µM
IC50 [26]: > 2 µM
IC50 [27]: > 2 µM
IC50 [28]: > 2 µM
IC50 [29]: > 2 µM
IC50 [30]: > 2 µM
IC50 [31]: > 2 µM
IC50 [32]: > 2 µM
IC50 [33]: > 2 µM
IC50 [34]: > 2 µM
IC50 [35]: > 2 µM
Ratio [38]: 11
Cp(f) (Rattus norvegicus [40]): 2.3 nM
Tmax [41]: 1 h
half-life [42]: 17 h
Compound: CCCOCCn1c(=O)c(N2CCN(CCO)CC2)nc2cnc(-c3ccc(OC)nc3)cc21 [PF-03049423]
Activity (Rattus norvegicus [13]): Active
IC50 [4]: 1.79 µM
Activity (Rattus norvegicus [36]): 25 mmHg
Activity (Rattus norvegicus [37]): Active
Activity (Rattus norvegicus [39]): Non-toxic

IC50 [3]: 0.0003 µM
Ratio IC50 (Homo sapiens [1]): 2090
Ratio IC50 (Homo sapiens [2]): 68
Compound: CCCOCCn1c(=O)c(N2CCN([C@H](C)[C@@H](C)O)CC2)nc2cnc(-c3ccc(OC)nc3)cc21 (racemic)

Ratio IC50 (Homo sapiens [1]): > 1780
Ratio IC50 (Homo sapiens [2]): 242
solubility [5]: > 100 µM
clearance [6]: 582 mL/min/kg
remaining at 0.5 h [7]: 100%
remaining at 0.5 h [8]: 95%
fraction unbound [9]: 0.226
fraction unbound [11]: 0.18
fraction unbound (Homo sapiens [43]): 0.212
fraction unbound (Homo sapiens [44]): 0.18
Compound: CCCOCCn1c(=O)c(NCCNCCO)nc2cnc(-c3ccc(OC)nc3)cc21
IC50 [4]: 4.5 µM

Ratio IC50 (Homo sapiens [1]): 456
Ratio IC50 (Homo sapiens [2]): 93
Compound: CCCOCCn1c(=O)c(N2C[C@H]3C[C@@H]2CN3)nc2cnc(-c3ccc(OC)nc3)cc21

IC50 [3]: 0.00031 µM
Ratio IC50 (Homo sapiens [1]): 1400
Ratio IC50 (Homo sapiens [2]): 49
Compound: CCCOCCn1c(=O)c(N2CCN(C[C@H](C)O)CC2)nc2cnc(-c3ccc(OC)nc3)cc21

Ratio IC50 (Homo sapiens [1]): > 1860
Ratio IC50 (Homo sapiens [2]): 94
Compound: CCCOCCn1c(=O)c(N2CCCN(CCCO)CC2)nc2cnc(-c3ccc(OC)nc3)cc21

IC50 [3]: 0.00018 µM
Ratio IC50 (Homo sapiens [1]): 4260
Ratio IC50 (Homo sapiens [2]): 62
Compound: CCCOCCn1c(=O)c(N2CCN(CCCO)CC2)nc2cnc(-c3ccc(OC)nc3)cc21
